Results as given in ChEMBL document CHEMBL2406972, “Synthesis and antitumor activities of novel dibenzo[b,d]furan-imidazole hybrid compounds” (Eur J Med Chem, 2013).

Columns and labels:
Assay type in all cases: functional, cell-based
HL-60 = test: Cytotoxicity against human HL60 cells after 48 hrs by MTT assay; conditions: HL-60, 48 h
A549 = test: Cytotoxicity against human A549 cells after 48 hrs by MTT assay; conditions: A549, 48 h
MCF7 = test: Cytotoxicity against human MCF7 cells after 48 hrs by MTT assay; conditions: MCF7, 48 h
SW480 = test: Cytotoxicity against human SW480 cells after 48 hrs by MTT assay; conditions: SW480, 48 h
SMMC-7721 = test: Cytotoxicity against human SMMC7721 cells after 48 hrs by MTT assay; conditions: SMMC-7721, 48 h

| SMILES | IC50 (HL-60) [µM] | IC50 (A549) [µM] | IC50 (MCF7) [µM] | IC50 (SW480) [µM] | IC50 (SMMC-7721) [µM] |
| --- | --- | --- | --- | --- | --- |
| CCCC[n+]1ccn(C(C)c2ccc3oc4ccccc4c3c2)c1 (stereo not given) | 5.63 | 12.8 | 9.11 | 24.1 | 14.2 |
| COc1ccc(C(=O)C[n+]2ccn(C(C)c3ccc4oc5ccccc5c4c3)c2)cc1 (stereo not given) | 3.45 | 12.2 | 9.02 | 12.7 | 9.98 |
| O=C(C[n+]1cn(C(c2ccccc2)c2ccc3oc4ccccc4c3c2)c2ccccc21)c1ccc(O)cc1 (stereo not given) | 2.89 | 17.7 | 9.15 | 15.6 | 10.8 |
| CC(c1ccc2oc3ccccc3c2c1)n1c[n+](CC(=O)c2ccc3ccccc3c2)c2ccccc21 (stereo not given) | 1.65 | 3.46 | 3.14 | 2.95 | 2.24 |
| CC(c1ccc2oc3ccccc3c2c1)n1cc[n+](CC(=O)c2ccc(O)cc2)c1 (stereo not given) | > 40 | > 40 | > 40 | > 40 | > 40 |
| CCCC[n+]1cn(C(C)c2ccc3oc4ccccc4c3c2)c2ccccc21 (stereo not given) | 1.67 | 8.55 | 9.41 | 11.1 | 3.78 |
| O=C(C[n+]1cn(C(c2ccccc2)c2ccc3oc4ccccc4c3c2)c2ccccc21)c1ccc(F)cc1 (stereo not given) | 2.18 | 12.1 | 1.87 | 3.6 | 3.57 |
| Cc1n(C(c2ccccc2)c2ccc3oc4ccccc4c3c2)cc[n+]1CC(=O)c1ccc(Br)cc1 (stereo not given) | 2.25 | 9.46 | 3.45 | 1.98 | 3.93 |
| Cc1n(C(C)c2ccc3oc4ccccc4c3c2)cc[n+]1CC(=O)c1ccc(Br)cc1 (stereo not given) | 2.67 | 12.8 | 6.77 | 11.8 | 6.4 |
| CCCC[n+]1cn(C(c2ccccc2)c2ccc3oc4ccccc4c3c2)c2ccccc21 (stereo not given) | 1.12 | 4.61 | 3.37 | 8 | 2.93 |
| O=C(C[n+]1ccn(C(c2ccccc2)c2ccc3oc4ccccc4c3c2)c1)c1ccccc1 (stereo not given) | 2.14 | 17.7 | 6.29 | 9.05 | 11.4 |
| CC(c1ccc2oc3ccccc3c2c1)n1c[n+](CC(=O)c2ccc(F)cc2)c2ccccc21 (stereo not given) | 1.67 | 13.7 | 3.85 | 9.77 | 6.31 |
| CC(c1ccc2oc3ccccc3c2c1)n1c[n+](CC(=O)c2ccccc2)c2ccccc21 (stereo not given) | 2.46 | 18.1 | 12.5 | 14.6 | 8.51 |
| O=C(C[n+]1ccn(C(c2ccccc2)c2ccc3oc4ccccc4c3c2)c1)c1ccc2ccccc2c1 (stereo not given) | 1.91 | 5.86 | 2.78 | 2.57 | 3.61 |
| Cc1n(C(c2ccccc2)c2ccc3oc4ccccc4c3c2)cc[n+]1CC(=O)c1ccc(O)cc1 (stereo not given) | 3.92 | 26.2 | 11.8 | 14.3 | 8.84 |
| Cc1nccn1C(C)c1ccc2oc3ccccc3c2c1 (stereo not given) | 10.9 | 16.2 | 18.7 | 21.4 | > 40 |
| O=[N+]([O-])c1ccc(C[n+]2ccn(C(c3ccccc3)c3ccc4oc5ccccc5c4c3)c2)cc1 (stereo not given) | 10.8 | 28.6 | 10.3 | 19.1 | 15.3 |
| CC(c1ccc2oc3ccccc3c2c1)n1c[n+](CC(=O)c2ccc(Br)cc2)c2ccccc21 (stereo not given) | 0.66 | 3.54 | 3.08 | 3.18 | 2.62 |
| CC(c1ccc2oc3ccccc3c2c1)n1cc[n+](CC(=O)c2ccc3ccccc3c2)c1 (stereo not given) | 2.46 | 8.46 | 3.5 | 3.69 | 6.43 |
| Cc1n(C(C)c2ccc3oc4ccccc4c3c2)cc[n+]1CC(=O)c1ccc(F)cc1 (stereo not given) | 2.96 | 15.4 | 16.2 | 12.3 | 4.7 |
| CCCC[n+]1ccn(C(C)c2ccc3oc4ccccc4c3c2)c1C (stereo not given) | 3.08 | 13 | 6.6 | 10 | 7.98 |
| COc1ccc(C(=O)C[n+]2ccn(C(c3ccccc3)c3ccc4oc5ccccc5c4c3)c2)cc1 (stereo not given) | 2.09 | 7.27 | 4.12 | 3.76 | 5.59 |
| Cc1n(C(c2ccccc2)c2ccc3oc4ccccc4c3c2)cc[n+]1Cc1ccc([N+](=O)[O-])cc1 (stereo not given) | 8.74 | > 40 | 15.3 | 18.2 | 18.5 |
| CCCC[n+]1ccn(C(c2ccccc2)c2ccc3oc4ccccc4c3c2)c1C (stereo not given) | 3.81 | 21.4 | 11.9 | 28.4 | 13.1 |
